Measured values taken from the NIST ThermoML archive (doi:10.1021/je700032n).
“And” between values parts separate entries of the source, which are not always exact repeats. Equal entries are not always repeated.

Details: Liquid; for viscosity: Falling or rolling sphere viscometry; for mass density: 101.33 kPa, Vibrating tube method

CCCC[n+]1ccn(C)c1.O=S(=O)([N-]S(=O)(=O)C(F)(F)F)C(F)(F)F
Details | viscosity
273.15 K, 100 kPa | 191.3 mPa·s and 191.6 mPa·s
278.15 K, 100 kPa | 140.4 mPa·s
283.15 K, 100 kPa | 106.1 mPa·s
283.15 K, 24300 kPa | 146.8 mPa·s
283.15 K, 49900 kPa | 205.8 mPa·s
283.15 K, 74100 kPa | 280.3 mPa·s
288.15 K, 100 kPa | 81.6 mPa·s
293.15 K, 100 kPa | 63.8 mPa·s and 63.9 mPa·s
298.15 K, 100 kPa | 50.9 mPa·s and 51 mPa·s and 51.1 mPa·s
298.15 K, 24300 kPa | 68.1 mPa·s
298.15 K, 49300 kPa | 90.9 mPa·s
298.15 K, 76900 kPa | 124 mPa·s
298.15 K, 101500 kPa | 161.5 mPa·s
298.15 K, 126400 kPa | 210.3 mPa·s
298.15 K, 150200 kPa | 269.4 mPa·s
303.15 K, 100 kPa | 41.5 mPa·s
313.15 K, 100 kPa | 28.5 mPa·s
323.15 K, 100 kPa | 20.5 mPa·s and 20.6 mPa·s and 20.7 mPa·s
323.15 K, 26400 kPa | 26.9 mPa·s
323.15 K, 35600 kPa | 29.2 mPa·s
323.15 K, 52000 kPa | 34.6 mPa·s
323.15 K, 53900 kPa | 34.8 mPa·s
323.15 K, 69800 kPa | 40.2 mPa·s
323.15 K, 75000 kPa | 41.6 mPa·s
323.15 K, 101600 kPa | 53.9 mPa·s
323.15 K, 103600 kPa | 54.4 mPa·s
323.15 K, 123600 kPa | 64.3 mPa·s
323.15 K, 152800 kPa | 83.6 mPa·s
323.15 K, 200300 kPa | 123.2 mPa·s
323.15 K, 226000 kPa | 151.2 mPa·s
323.15 K, 249600 kPa | 183.2 mPa·s
333.15 K, 100 kPa | 15.4 mPa·s and 15.5 mPa·s
343.15 K, 100 kPa | 12 mPa·s
348.15 K, 100 kPa | 10.6 mPa·s and 10.7 mPa·s
348.15 K, 800 kPa | 10.7 mPa·s
348.15 K, 25700 kPa | 13.4 mPa·s
348.15 K, 50700 kPa | 16.4 mPa·s
348.15 K, 75600 kPa | 19.9 mPa·s
348.15 K, 100900 kPa | 24.2 mPa·s
348.15 K, 125500 kPa | 29 mPa·s
348.15 K, 150600 kPa | 34.6 mPa·s
348.15 K, 175400 kPa | 40.9 mPa·s
348.15 K, 175600 kPa | 41 mPa·s
348.15 K, 200600 kPa | 48.6 mPa·s
348.15 K, 225400 kPa | 57.4 mPa·s
348.15 K, 249700 kPa | 67.3 mPa·s
348.15 K, 274500 kPa | 79 mPa·s
348.15 K, 298900 kPa | 92.6 mPa·s
353.15 K, 100 kPa | 9.53 mPa·s

Details | mass density
273.15 K | 1460.67 kg/m3
278.15 K | 1455.84 kg/m3
283.15 K | 1451.04 kg/m3
288.15 K | 1446.23 kg/m3
293.15 K | 1441.43 kg/m3 and 1441.42 kg/m3
298.15 K | 1436.64 kg/m3 and 1436.6 kg/m3
303.15 K | 1431.86 kg/m3
313.15 K | 1422.34 kg/m3
323.15 K | 1412.87 kg/m3 and 1412.85 kg/m3
333.15 K | 1403.48 kg/m3
343.15 K | 1394.15 kg/m3
353.15 K | 1384.88 kg/m3
363.15 K | 1375.67 kg/m3
